The results in this text go back to PMC4339887, “Selective Sirt2 inhibition by ligand-induced rearrangement of the active site” (Nature Communications, 2015).

One assay has as its system BubR1 in HeLa cells. Kind of assay: abundance of BubR1, western blot. Format: cell-based. The protocol:
Cells were washed with PBS, lysed in IPLS (50 mM Tris/HCl, 150 mM NaCl, 0.5 mM EDTA, 0.5% (v/v) NP-40, pH 7.5, supplemented with Complete protease inhibitors (Roche)). Samples were pelleted and resuspended in 1 × SDS–PAGE sample buffer and heated (95 °C, 5 min). Cell samples were separated using SDS–PAGE (10% (w/v) polyacrylamide), transferred to a nitrocellulose membrane (Bio-Rad), blocked with non-fat dry milk (Roth, 5% (w/v), TBS, 0.1% (v/v) Tween 20) and probed with the anti-BubR1 (1:5,000, BD Biosciences, 612502) and anti-tubulin (1:5,000, Sigma-Aldrich, T5168) as a loading control. Uncropped blots are shown in the Supplementary Fig. 8.
(In general: In western blotting, separated proteins are transferred to a membrane and probed.)

A further assay deals with T1, human Sirt3 (Homo sapiens, UniProt Q9NTG7).
T1 sequence (Q9NTG7 118-395): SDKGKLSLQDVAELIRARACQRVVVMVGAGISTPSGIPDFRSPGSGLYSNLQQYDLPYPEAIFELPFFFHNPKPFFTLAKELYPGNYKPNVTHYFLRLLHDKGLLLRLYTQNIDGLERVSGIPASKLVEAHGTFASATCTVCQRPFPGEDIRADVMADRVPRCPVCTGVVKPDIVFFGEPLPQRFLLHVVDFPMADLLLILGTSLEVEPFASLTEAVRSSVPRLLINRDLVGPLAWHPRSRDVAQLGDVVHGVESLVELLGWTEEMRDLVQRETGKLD
Kind of assay: HPLC-based conversion assay, non-labelled acetyl-lysine α-tubulin peptide. The conditions noted are these: 100 μM, acetyl-lysine substrate.

The target of another assay is T2, KDAC1 (Homo sapiens, UniProt Q13547).
T2 construct: purchased Enzo Life Sciences
T2 sequence (Q13547 whole entry): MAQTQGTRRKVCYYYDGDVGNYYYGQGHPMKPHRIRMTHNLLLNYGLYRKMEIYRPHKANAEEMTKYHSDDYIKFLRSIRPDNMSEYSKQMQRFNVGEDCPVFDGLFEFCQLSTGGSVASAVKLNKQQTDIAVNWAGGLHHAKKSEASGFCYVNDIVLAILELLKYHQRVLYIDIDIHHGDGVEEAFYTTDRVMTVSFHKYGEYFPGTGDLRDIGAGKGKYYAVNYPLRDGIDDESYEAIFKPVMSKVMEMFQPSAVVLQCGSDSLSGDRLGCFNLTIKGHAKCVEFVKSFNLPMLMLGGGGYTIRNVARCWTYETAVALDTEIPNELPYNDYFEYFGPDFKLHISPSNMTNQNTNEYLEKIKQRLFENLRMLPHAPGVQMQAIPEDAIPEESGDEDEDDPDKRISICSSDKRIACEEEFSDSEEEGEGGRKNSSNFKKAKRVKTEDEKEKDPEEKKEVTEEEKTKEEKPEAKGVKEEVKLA
Kind of assay: in vitro KDAC1/6 assay, substrate ZMAL. Format: biochemical. How it is done: (§1) 5 times), Fmoc deprotection and amino acid coupling were repeated until the last amino acid was coupled and the Fmoc group was removed. The resin was washed with dichloromethane (DCM, 3 min, 5 times), methanol (5 min, 3 times) and DCM (3 min, 5 times). […]
(§2) acid (TFA) at RT (1 h, 2 times). Cleaved peptide was precipitated with cold diethylether, filtrated and dried. The peptide was purified by semi-preparative HPLC (Merck-Hitachi High Speed LC system) using a Merck Hibar LiChrosorb RP-8 column (250–25 mm, 7 μm). For separation a linear gradient from 20–50% (vol/vol) acetonitrile (ACN) with 0.1% (vol/vol) TFA in 60 min was applied (flow-rate: 8 ml min-1). […]
(§3) high-throughput fluorescence-based assay using the substrate ZMAL (Z-Lys(Acetyl)- […]
(§4) A solution that contained DMSO was used a negative
(§5) The reaction was started through the addition of KDAC1 (Enzo Life Sciences, 10 μL) or […]
(§6) initial state conditions the substrate conversion was adjusted to 10–30% prior to inhibition tests. The reaction was stopped by the addition of a solution containing trypsin and TSA […]
(§7) Then fluorescence intensity of the released fluorophore of the deacetylated lysine derivative was measured in a microplate […]
(§8) reader (BMG Polarstar, Oex 390 nm, Oem 460 nm). The amount of inhibition was determined with respect to the mixture with only DMSO.
(§9) Immunocytochemistry equipment and settings. […]

A further assay concerns the target T3, KDAC6 (Homo sapiens, UniProt Q9UBN7).
T3 construct: purchased Enzo Life Sciences
T3 sequence (Q9UBN7 1-1215): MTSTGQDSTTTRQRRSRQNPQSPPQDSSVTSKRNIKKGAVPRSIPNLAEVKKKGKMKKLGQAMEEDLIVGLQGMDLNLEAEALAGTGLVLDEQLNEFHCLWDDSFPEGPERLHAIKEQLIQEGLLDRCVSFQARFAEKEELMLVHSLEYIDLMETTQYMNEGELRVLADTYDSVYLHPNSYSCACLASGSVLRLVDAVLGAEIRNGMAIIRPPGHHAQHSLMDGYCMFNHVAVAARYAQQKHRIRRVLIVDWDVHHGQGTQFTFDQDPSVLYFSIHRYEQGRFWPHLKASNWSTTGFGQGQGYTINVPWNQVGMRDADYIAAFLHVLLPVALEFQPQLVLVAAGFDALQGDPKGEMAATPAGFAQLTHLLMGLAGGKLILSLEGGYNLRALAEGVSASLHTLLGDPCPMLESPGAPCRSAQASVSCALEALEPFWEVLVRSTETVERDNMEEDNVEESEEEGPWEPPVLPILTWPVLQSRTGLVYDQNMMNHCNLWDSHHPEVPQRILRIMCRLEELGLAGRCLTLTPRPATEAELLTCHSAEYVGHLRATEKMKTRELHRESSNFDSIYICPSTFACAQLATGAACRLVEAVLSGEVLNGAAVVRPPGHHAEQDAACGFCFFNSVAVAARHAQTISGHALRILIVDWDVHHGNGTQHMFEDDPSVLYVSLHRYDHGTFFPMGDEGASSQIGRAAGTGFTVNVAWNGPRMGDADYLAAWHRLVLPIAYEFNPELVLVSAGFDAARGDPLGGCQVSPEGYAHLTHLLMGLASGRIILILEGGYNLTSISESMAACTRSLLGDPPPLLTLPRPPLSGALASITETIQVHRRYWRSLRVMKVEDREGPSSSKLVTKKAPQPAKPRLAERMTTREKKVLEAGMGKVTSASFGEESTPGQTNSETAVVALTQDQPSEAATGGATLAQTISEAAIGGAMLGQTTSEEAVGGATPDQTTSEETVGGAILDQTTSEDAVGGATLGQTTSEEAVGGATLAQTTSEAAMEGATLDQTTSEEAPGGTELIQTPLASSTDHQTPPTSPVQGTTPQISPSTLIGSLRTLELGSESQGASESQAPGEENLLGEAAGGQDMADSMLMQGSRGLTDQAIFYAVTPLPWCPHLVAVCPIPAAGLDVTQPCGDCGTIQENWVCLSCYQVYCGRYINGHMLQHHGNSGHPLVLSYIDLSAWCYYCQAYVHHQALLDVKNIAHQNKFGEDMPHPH
Kind of assay: in vitro KDAC1/6 assay, substrate ZMAL. Format: biochemical. The protocol: as §1, §2, §3, §4, §5, §6, §7, §8, §9

The target of the next assay is T4, human Sirt6 (Homo sapiens, UniProt Q8N6T7).
T4 construct: human Sirt6_13–308 (Uniprot: Q8N6T7); made in house
T4 sequence (Q8N6T7 13-308): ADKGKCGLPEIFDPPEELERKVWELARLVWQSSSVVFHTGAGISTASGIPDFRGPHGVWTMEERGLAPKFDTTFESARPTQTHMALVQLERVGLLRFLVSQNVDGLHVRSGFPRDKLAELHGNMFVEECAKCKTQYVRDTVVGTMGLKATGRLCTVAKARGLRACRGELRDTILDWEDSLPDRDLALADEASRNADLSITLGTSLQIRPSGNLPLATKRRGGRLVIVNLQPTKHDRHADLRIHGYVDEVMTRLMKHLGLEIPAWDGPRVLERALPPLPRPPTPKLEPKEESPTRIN
Kind of assay: HPLC-based assay, non-labelled myristoyl-lysine peptide. The conditions noted are these: myristoyl-lysine substrate. The format is biochemical.

“Also recorded” adds a separate entry of the source.

By inhibition is commonly meant the drop in the measured response relative to a control, in per cent. Take `Cc1cc(C)nc(SCC(=O)Nc2ncc(Cc3cccc4ccccc34)s2)n1` [SirReal2]: the “abundance of BubR1” value was “significantly reduced” with BubR1 in HeLa cells (50 μM, in relation to DMSO control) and “reduction; also recorded: dose-dependent depletion” in the assay with BubR1 in HeLa cells (various concentrations, 16 h). In addition, the “effect on activity of Sirt3” value at human Sirt3 is recorded as “very little effect”. For the same compound, the “activity of KDAC1” value on KDAC1 is reported as “does not affect”. In addition, the “activity of KDAC6” value at KDAC6 was “does not affect; also recorded: not affected”. Also, the inhibition at 200 µM on human Sirt6 came to 19%.
